System: patient-derived HCC xenograft lines (07-0409, 29-0909A, 01-0909)
Experiment: Patient-derived HCC xenograft models in SCID mice
Settings: for tumor growth rate of xenografts / tumor regressions: single agent therapy, 30 mg/kg Compound of Formula I or 5 mg/kg RAD001 orally daily, HCC07-0409
[1] = 30 mg/kg Compound of Formula I orally daily, SCID mice

Description: Xenograft models: All mice were provided with sterilized food and water ad libitum and housed in negative pressure isolators with 12 hours light/dark cycle. Primary HCCs have previously been used to create xenograft lines, of which the following lines (07-0409, 29-0909A, 01-0909) were used to establish tumors in male SCID mice (Animal Resources Centre, Canning Vale, Western Australia) aged 9 to 10 weeks.
Tumor treatment: Compound of Formula I and RAD001 was dissolved in vehicle at an appropriate concentration before treatment. Mice bearing indicated tumors were orally administered 5 mg/kg RAD001 or 30 mg/kg Compound of Formula I daily, or two compounds combined for indicated days. Each treatment group was comprised of 10 animals and each experiment was repeated at least twice. Treatment started on day 7 after tumor implantation. By this time, the tumors reached the size of approximately 100 mm^3. Tumor growth was monitored and tumor volume was calculated as described. At the end of the study, the mice were sacrificed with body and tumor weights recorded and the tumors harvested for analysis. The efficacy of Compound of Formula I was determined by T/C ratio, where T and C are median weight of drug-treated and vehicle-treated tumor respectively at the end of treatment.

Row | SMILES | tumor growth rate of xenografts | tumor regressions | acute mortality throughout treatment [1] | body weight loss throughout treatment [1] | anti-tumor activities on patient-derived HCC xenograft lines (lines 07-0409, 29-0909A, 01-0909, 30 mg/kg orally daily)
1 | CO[C@H]1C[C@@H]2CC[C@@H](C)[C@@](O)(O2)C(=O)C(=O)N2CCCC[C@H]2C(=O)O[C@H]([C@H](C)C[C@@H]2CC[C@@H](OCCO)[C@H](OC)C2)CC(=O)[C@H](C)/C=C(\C)[C@@H](O)[C@@H](OC)C(=O)[C@H](C)C[C@H](C)/C=C/C=C/C=C/1C [RAD001, 40-O-(2-hydroxy)ethyl-rapamycin, reference compound] | inhibited | did not induce tumor regressions |  |  | 
2 | CN1CCN(c2ccc3nc(-c4c(N)c5c(F)cccc5[nH]c4=O)[nH]c3c2)CC1 [Compound of Formula I, 4-Amino-5-fluoro-3-[6-(4-methylpiperazin-1-yl)-1H-benzimidazol-2-yl]-1H-quinolin-2-one] | inhibited | did not induce tumor regressions | no acute mortality | no significant weight loss | observed
